From US9856218B2, “Inhibitors of PRMT5 and methods of their use” (Ohio State Innovation Foundation, priority 2013, dated 2018)

System: H4R3me2 binding to miR-29b regulatory site
Experiment: ChIP assay at miR-29b regulatory site
Format: cell-based
Procedure: Cross-linked chromatin was prepared by incubating cells in 1% formaldehyde for 10 min at room temperature and quenching with ice cold 1M Glycine. Cells were sonicated in 1% SDS lysis buffer and sheared chromatin was used to pull down protein/DNA complexes using antibodies against SP1, p65 (ChIP-grade Millipore), H4R3me2, H3R8me2 (Abcam) and RNA Pol II as positive control and normal IgG (Millipore) as negative control. Reverse cross-linked DNA was purified using QIAquick PCR Purification kit (Qiagen) and quantitative real-time PCR was carried out using SYBER green incorporation and primers designed for either FLT3 promoter region (sequenceF:R:) or miR-29b enhancer region (sequenceF:R:). DNA signals were calculated relative to input DNA amount and in comparison to expression values of negative control IgG.
The regulatory region of pri-miR-29b was later checked for possible docking of PRMT5 (indirect binding) or H3R8me2 and/or H4R3me2 (direct binding) using ChIP assay with and without PRMT5 inhibition. […] The efficiency of miR-29b in modulating SP1 was confirmed by miR-29b gain- and loss-of function assays in AML cells, and significant suppression of SP1 in miR-29b overexpressing cells was detected, while SP1 was re-expressed when cells were treated with miR-29b knockdown (FIGS. 49A and 49B). […]

CCn1c2ccccc2c2cc(CNCc3ccccc3OC)ccc21 [HLCL-61]
binding of H4R3me2 to miR-29b regulatory site: significant decrease in binding
